Laboratory results reported in ChEMBL document CHEMBL5058644, “Data for DCP probe JNJ-39758979” (2022).

What was measured:
[1] = target: T1, Histamine H4 receptor (Homo sapiens, UniProt Q9H3N8); experiment: Binding assay
[2] = target: T1, Histamine H4 receptor; experiment: Cell based cAMP Assays (pA2); conditions: read-out: pA2 (converted)

- Ki [1]: > 10 µM (not active)
- Kb [2]: > 100 µM (not active)
Structure (SMILES): CN[C@@H]1CCN(c2cc(C(F)(F)F)nc(N)n2)C1
